Source: PubChem BioAssay (NCI)
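How tested: cells in 96-well plates exposed to compound for 48 hours at five concentrations. The concentration for 50% growth inhibition is given as GI50. TGI marks complete inhibition of growth.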

How the values were obtained:
Test in all cases: growth of human tumour cells (NCI), 48 h
[1] = tested on: SK-MEL-28 melanoma
[2] = tested on: CAKI-1 renal
[3] = tested on: OVCAR-5 ovarian
[4] = tested on: SF-295 CNS
[5] = tested on: HOP-92 NSCLC
[6] = tested on: SNB-75 CNS
[7] = tested on: SR leukemia
[8] = tested on: IGROV1 ovarian
[9] = tested on: LOX IMVI melanoma
[10] = tested on: CCRF-CEM leukemia
[11] = tested on: HT29 colon
[12] = tested on: KM12 colon
[13] = tested on: K-562 leukemia
[14] = tested on: A549 NSCLC
[15] = tested on: SF-539 CNS
[16] = tested on: A498 renal
[17] = tested on: DU-145 prostate
[18] = tested on: T-47D breast

| SMILES | TGI [1] [µM] | TGI [2] [µM] | TGI [3] [µM] | TGI [4] [µM] | TGI [5] [µM] | TGI [6] [µM] | TGI [7] [µM] | TGI [8] [µM] | TGI [9] [µM] | TGI [10] [µM] | TGI [11] [µM] | TGI [12] [µM] | TGI [13] [µM] | TGI [14] [µM] | TGI [15] [µM] | TGI [16] [µM] | TGI [17] [µM] | TGI [18] [µM] | GI50 [16] [µM] | GI50 [4] [µM] |
| --- | --- | --- | --- | --- | --- | --- | --- | --- | --- | --- | --- | --- | --- | --- | --- | --- | --- | --- | --- | --- |
| O=C1C=C(N2CCCC2)C=C(N2CCCC2)C1 | > 100 | > 100 | > 100 | > 100 | > 100 | > 100 | > 100 | > 100 | > 100 | > 100 | > 100 | > 100 | > 100 | > 100 |  |  |  |  |  |  |
| O=C1Nc2cccc3ncn(c23)C2=C1CCCC2 | > 100 |  | > 100 | > 100 |  |  | > 100 | > 100 | > 100 | > 100 |  | > 100 | > 100 | > 100 | > 100 |  |  |  |  |  |
| COc1cc(C2C(Cl)C(=O)N2n2cnc3ccccc3c2=O)cc(OC)c1OC (configuration not stated) | > 100 | > 100 | > 100 | > 100 |  | > 100 | > 100 | > 100 | > 100 | > 100 | > 100 | > 100 | > 100 | > 100 |  |  |  |  |  |  |
| CC[C@@H]1CN2CCC1C[C@@H]2C(O)c1ccnc2ccc(OCCN3CCN(CCOc4ccc5nccc(C(O)[C@@H]6C[C@@H]7CCN6C[C@@H]7CC)c5c4)CC3)cc12 (some centres not stated) | 35.5 | 32.5 | 32.9 | 30.5 | 22.8 |  |  | 36.7 | 38.5 | 15.7 | 30.2 | 34 | 6.2 | 29.8 | 36.7 | 37 | 31.8 | 42.1 |  |  |
| C[C@H](CCC1=NCCN1)[C@H]1CC[C@H]2[C@@H]3[C@H](O)C[C@@H]4C[C@H](O)CC[C@]4(C)[C@H]3CC[C@]12C | 27.2 | 40.9 | 27.5 | 28.9 | 21.8 | 22.4 |  | 23.9 | 22.8 | 32.9 | 10.4 | 27.7 | 21.6 |  | 25.5 | 26.1 | 27.3 | 31.3 |  |  |
| Cc1ccc(/C=C2\CN(C)CC3C(c4ccc(C)cc4)=C(C#N)C(=O)NC23)cc1 (configuration not stated) | > 50 | > 50 | > 50 | > 50 | > 50 |  |  | > 50 | > 50 | > 50 | > 50 | > 50 | > 50 | > 50 |  | > 50 | > 50 | > 50 |  |  |
| CCOC(=O)c1c(O)[nH]c(=O)c(CC)c1C | > 100 | > 100 | > 100 | > 100 | > 100 | > 100 |  | > 100 | > 100 | > 100 | > 100 | > 100 | > 100 | > 100 | > 100 | > 100 | > 100 | > 100 |  |  |
| CC(=O)N1c2ccccc2C(C)(C)OC1C(Cl)(Cl)Cl (configuration not stated) | > 100 | > 100 | > 100 | > 100 | 78.9 | 71.9 |  | > 100 |  | > 100 | > 100 | > 100 |  | > 100 | > 100 | > 100 | > 100 | > 100 |  |  |
| CNNC1=NS(=O)(=O)c2cc(C)c(Cl)cc2S1 | > 10 | > 10 | > 10 | > 10 |  | > 10 |  | > 10 | > 10 | > 10 | > 10 | > 10 | > 10 | > 10 | > 10 | > 10 | > 10 | > 10 |  |  |
| CCOC(=O)N1CCN(Cc2cc(=O)n3cc(C)ccc3n2)CC1 | > 100 | > 100 | > 100 | > 100 | > 100 | > 100 | > 100 | > 100 | > 100 | > 100 | > 100 | > 100 | > 100 | > 100 | > 100 |  | > 100 |  |  |  |
| CCN(CC)CCNC(=O)c1ccc([N+](=O)[O-])cc1OC | > 100 | > 100 | > 100 | > 100 | > 100 | > 100 | > 100 | > 100 | > 100 | > 100 | > 100 | > 100 | > 100 | > 100 | > 100 | > 100 |  |  |  |  |
| N#C/C(=C1\N=C(c2ccccc2O)Oc2ccccc21)c1ccc([N+](=O)[O-])cc1 | > 100 | > 100 | > 100 | > 100 | > 100 | > 100 |  | > 100 | > 100 | > 100 | > 100 | > 100 | > 100 | > 100 | > 100 | > 100 | > 100 | > 100 |  |  |
| COc1cc([C@@H]2c3cc4c(cc3[C@H](OC3OC5COC(C(C)C)OC5C(O)C3O)C3COC(=O)[C@@H]32)OCO4)cc(OC)c1O (some centres not stated) |  | 19.2 | 25 | 21.7 | 27.5 |  | > 100 | 21.8 | 30 | > 100 | 11.1 | 39.6 | > 100 | 21.8 | 8.18 | 22.8 |  | 60.1 |  |  |
| CC(=O)O[C@H]1C(=O)[C@@]2(C)C([C@H](OC(=O)c3ccccc3)[C@]3(O)C[C@H](OC(=O)[C@H](O)[C@H](NC(=O)c4ccccc4)c4ccc(Cl)cc4)C(C)=C1C3(C)C)C1(OC(C)=O)CO[C@@H]1C[C@@H]2O (some centres not stated) |  | 23.9 | 0.0407 |  |  |  |  |  | 55.9 | 12.9 |  |  | 10.9 | 24.4 | 0.0026 | 30.4 |  |  | 0.2 | 0.0167 |
| CC(=O)OCC1OC(Nc2ccc3nc(C)n(-c4cccc(C)c4)c(=O)c3c2)C(OC(C)=O)C(OC(C)=O)C1OC(C)=O (configuration not stated) | > 62.5 | > 62.5 | > 62.5 | > 62.5 |  | > 62.5 | > 62.5 | > 62.5 | > 62.5 |  | > 62.5 | > 62.5 | > 62.5 |  |  | > 62.5 | > 62.5 | > 62.5 |  |  |
| S=C(NNC1=NCCCN1)Nc1ccccc1 | > 100 | > 100 | > 100 | > 100 | > 100 | > 100 | > 100 | > 100 | > 100 | > 100 | > 100 | > 100 | > 100 | > 100 | > 100 | > 100 |  | > 100 |  |  |
| CC(O)c1c2c(cc3c1CC1(C3)Cc3cc4c(c(C(C)O)c3C1)CCC4)CCC2 (configuration not stated) |  |  | 50.2 | 45.2 | 31.6 |  | 29.8 | 42.3 | 32.8 | 22.1 | 28.3 | 38.4 | 26.8 | 33.1 | 46.4 | 29 |  | 53.7 |  |  |
| CC(=O)Oc1ccc(N2C(=O)C3c4[nH]c5ccccc5c4C4CCC(C(C)(C)C)CC4C3C2=O)cc1 (configuration not stated) | 14.9 | 16 | 14.6 | 14.8 | 7.84 |  |  | 19.9 | 14.3 | 13.2 | 9.38 |  | 10.9 | 10.7 | 18.3 | 14.7 | 12.2 |  |  |  |
| O=C1CC2CC=C[C@H]3c4cc5c(cc4C(=O)N1C23)OCO5 (some centres not stated) | > 50 |  |  | > 50 |  | > 50 |  | > 50 | > 50 | > 50 | > 50 | > 50 | > 50 | > 50 | > 50 |  |  |  |  |  |
| CC(=O)Nc1ccc(Nc2cc(=O)n(C)c(=O)[nH]2)cc1 | > 100 | > 100 | > 100 | > 100 | > 100 | > 100 | > 100 | > 100 | > 100 | > 100 | > 100 | > 100 | > 100 | > 100 | > 100 | > 100 |  | > 100 |  |  |
| CCOc1ccc(N2C(=O)C3c4[nH]c5ccccc5c4C4CCC(C(C)(C)C)CC4C3C2=O)cc1 (configuration not stated) | > 100 |  |  | > 100 | > 100 | > 100 | > 100 | > 100 |  | > 100 | > 100 |  | > 100 | > 100 | > 100 | > 100 |  |  |  |  |
| Cc1c2c(c(C)n1-c1ccccc1)C(=O)N(CCSC(=N)N)C2=O | > 100 | > 100 | > 100 | > 100 | > 100 | > 100 |  | > 100 |  | > 100 | > 100 | > 100 | > 100 | > 100 | > 100 | > 100 | > 100 | 73.6 |  |  |
| O=C(Cc1ccccc1)NN1C(=O)C(Cl)C1c1cccc(O)c1 (configuration not stated) | 34.6 | 34.8 | 27.5 | 40.4 |  | 74.6 | 15.4 | 34.8 | 27.9 | 8.44 | 31.1 |  | 34.7 | 59.8 |  |  |  |  |  |  |
| CCOC(=O)c1cccc(NC(=O)CBr)c1 | 7.75 | 1.16 | 3.28 | 14.6 | 4.14 | 3.31 | 0.521 | 2.77 | 0.407 |  | 3.32 | 3.58 | 1.63 | 3.96 | 2.6 | 14.7 | 3.39 |  |  |  |
| O=C(O)C(CS)NCc1c2ccccc2[n+]([O-])c2ccccc12 (configuration not stated) | > 100 | > 100 | > 100 | > 100 | 46.5 | > 100 |  | > 100 | > 100 | 80.8 | > 100 | > 100 | > 100 | > 100 |  | > 100 |  |  |  |  |
| Cc1c(NC(=O)C(=O)N=NC(=O)c2ccncc2)c(O)c2ccccc2c1O | 31.7 | 57 | 30.8 | 23.3 | 33.5 | 36.2 | > 36.4 | 28.5 | 19.1 | > 87 | 44.9 | > 100 | > 82 | 30.2 | 33.3 | 43.5 |  |  |  |  |
| CC(=O)OCCC1c2ccccc2-n2nc(-c3ccccc3)c(O)c21 (configuration not stated) | 30.6 | 33.6 | 38.7 | 45 | 27.4 | 37.7 | 38.7 |  | 27.4 | 50 | 42.4 | 38.5 | 37.7 | 37.3 | 44.7 | 36.4 | 41.1 |  |  |  |
| N[C@H]1C2C3CC4C5CC(C42)C1(c1ccccc1)C53 (some centres not stated) | > 100 | > 100 | > 100 | > 100 | > 100 | > 100 | > 100 | > 100 | > 100 | > 100 | > 100 | > 100 | > 100 | > 100 | > 100 | > 100 |  |  |  |  |
| ClC(Cl)(Cl)C1CCOC1n1nc2ccccc2n1 (configuration not stated) |  | > 100 | > 100 | > 100 |  | > 100 | > 100 | > 100 |  | > 100 | > 100 |  | > 100 | > 100 | > 100 | > 100 | > 100 | > 100 |  |  |
| O=[N+]([O-])c1cccc(N=C2c3ccccc3CN2c2cccc([N+](=O)[O-])c2)c1 | > 100 | > 100 | > 100 | > 100 | > 100 | 73.5 |  | > 100 | > 100 |  | > 100 | > 100 | > 100 | > 100 | > 100 | > 100 | > 100 | > 100 |  |  |
